Measurements as given in ChEMBL document CHEMBL3507680, “University of Dundee, Gates Library screen for HepG2 cell viability”.

Assay: Human HepG2 cell viability assay in 384 well format
Type: toxicity, cell-based
Set-up: dose 125 nL, time 70.5 hour; concentration not given beside the values
Conditions: HepG2 cells, read-out: Inhibition

SMILES	cytotoxicity at 70.5 h [%]
O=S(=O)(C1CC1)N1CC[C@]2(C[C@H](OCC3CCOCC3)CO2)C1	-9.21
CC(=O)NC1CCN(c2nc(N(C)C)nc3c2CCCC3)CC1	-1.98
CCN(Cc1ccco1)C(C)c1nc(C(C)C)no1 (configuration not stated)	-3.54
c1cc(CN2CCCn3cnc(COCC4CC4)c3C2)co1	-8.86
CCOc1ccc2[nH]c3c(N(C)CC4OCCO4)ncnc3c2c1	-21.1
CC(c1ccc(S(C)(=O)=O)cc1)N(C)C(=O)c1ccccc1I (configuration not stated)	-4.13
CCC(C)N(Cc1ccncc1)C(=O)CCC(=O)OC (configuration not stated)	4.04
CN1CCn2nc(-c3nc4ccccc4n3C)cc2C1	32.2
CC(c1nc(C2CC2)no1)N1CCN(Cc2ccccc2F)CC1 (configuration not stated)	-6.67
c1coc(CN2CC[C@@H]3O[C@@H](COCC4CCOCC4)CC[C@@H]32)c1	-0.874
CN(C)C[C@@H]1CN(C(=O)c2cc(-c3ccccc3)n[nH]2)C[C@@H]1CO	16.6
Cc1ccc(NC(=O)NCCc2ccncc2C)c(N(C)C)n1	-16.2
CCc1cnc(CCNS(C)(=O)=O)s1	-6.67
CN(C)C(=O)Cn1c(C2CC2)c(CN2CCSCC2)c2cccnc21	1.03
Cc1nc(C2CCCN(C(=O)c3cnn(C(C)(C)C)c3)C2)no1 (configuration not stated)	23.3
COCCN1CCCC(O)(CN2CCN(c3ncccc3C)CC2)C1=O (configuration not stated)	-7.68
Cc1cccc(SC2CCN(Cc3nc(CC4CC4)no3)CC2)c1	0.0623
O=C(NCCNc1ccccn1)N1CCSCC1	-5.96
CO[C@H]1CN(Cc2cc(Cn3cncn3)c(C)cc2C)CC[C@H]1N	6.57

SMILES	cytotoxicity at 70.5 h [%]
CC(=O)N1CCOC(Cc2cccc(C(F)(F)F)c2)C1 (configuration not stated)	-4.91
Cc1nc(CC(=O)N2CCN(Cc3ccc(C#N)cc3)CC2)cs1	-1.78
O=C(Cc1ccccn1)N1C[C@H](OCc2cccnc2)[C@H]2COC[C@H]21	0.247
Cc1nc(O)ccc1C(=O)NCc1ncccc1F	-2.33
CN1CCCC1c1cncc(C(=O)NCCN2CCCCC2)n1 (configuration not stated)	-8.33
CC(CNS(N)(=O)=O)Oc1ccc(Cl)cc1 (configuration not stated)	1.53
OC(CN1CCCc2ccc(F)cc21)Cn1cccn1 (configuration not stated)	7.05
CC(c1ccccc1F)N(C(=O)CSCC(N)=O)C1CC1 (configuration not stated)	5.29
CCCNC(=O)CNC(=O)CC1CCCc2cc(OC)ccc21 (configuration not stated)	-6.62
CC(C)[C@H]1CN(C(=O)CO)C[C@@H]1N(C)C	-13.8
CCOC(=O)[C@]12CCCN(Cc3ccsc3)C[C@H]1CN(CCOC)C2	-5.12
COCCC(=O)N1CCc2cc(Cl)cc(Cl)c2C1	-2.57
O=C(Nc1cccnc1N1CCCC1)C1CCS(=O)(=O)C1 (configuration not stated)	1.04
Cc1ccc(Br)c(S(=O)(=O)NCc2cnn(C)c2)c1	-5.3
Cc1ccc(C(=O)O)cc1CNC(=O)CN1CC[C@](C)(O)C(C)(C)C1	-6.88
CC(C)c1nn(C)c(N(C)C)c1CNCc1ccccc1CN(C)C	-0.417
CC(C)CC(O)C1CCN(Cc2ccc(N(C)C)nc2)CC1 (configuration not stated)	23.2
CC(=O)N[C@@H]1CN(C(=O)c2ccc[nH]2)C[C@H]1c1ccc(C)o1	0.0626
CC(C(=O)N1CCCN(c2ccccc2C#N)CC1)n1cccn1 (configuration not stated)	-7.8

SMILES	cytotoxicity at 70.5 h [%]
O=C(NCc1cccnc1N1CCCC(O)C1)c1ccc2[nH]nnc2c1 (configuration not stated)	-25
CS(=O)(=O)c1cccc(S(=O)(=O)NCCCN2CCNC(=O)C2)c1	-5.37
O=C(NCc1ccc(Br)c(F)c1)Nc1cn[nH]c1	-22.7
Fc1cccc(C(NCc2ncc[nH]2)c2ccccn2)c1 (configuration not stated)	-6.19
Cc1cc(C(=O)N2CCc3ncc(CN4CCCCC4)n3CC2)no1	21.9
CCN(CC)CCNC(=O)c1ccn(COc2cc(C)cc(C)c2)n1	-3.13
O=C(c1ccccn1)N1C[C@@H]2CC[C@H](C1)N(C(=O)c1ccsc1)C2	26.5
COc1ccccc1CC(NC(=O)N1CCOCC1)C(C)C (configuration not stated)	17.3
O=C(c1cnn(-c2ccccc2)n1)N1CCCC(n2cccn2)C1 (configuration not stated)	-10.8
CN(C)CCN1CCC2(CCCN(Cc3cccn3C)C2)C1=O (configuration not stated)	-11.1
Cn1ccnc1CN1CCN(CCOc2cccc(C#N)c2)CC1	-0.0786
CCC(CC)S(=O)(=O)NC(=O)c1ccc2c(c1)ncn2C	-0.423
CC(C)N1c2sc(-c3ccsc3)nc2CC1C(=O)NC1CC1 (configuration not stated)	-5.25
O=C(Cc1cccs1)N1C[C@@H]2CC[C@H](C1)N(Cc1ccccn1)C2=O	-10.5
CCc1nnc(CN2CCCCC2Cn2cncn2)o1 (configuration not stated)	10.6
CC(C)c1sc(Cl)nc1C(=O)N1CCN(c2ccccn2)CC1	29.7
CC(C)c1nc(-c2ccnc(N3CCNCC3)n2)no1	-7.09
CS(=O)(=O)Cc1ccc(OCc2ccc(F)cc2)cc1	19.8
CCn1c(C2CCCN(Cc3cc(F)ccc3OC)C2)nn(C)c1=O (configuration not stated)	-9.41
